Reference: ChEMBL document CHEMBL1154687, “Binding ensemble profiling with photoaffinity labeling (BEProFL) approach: mapping the binding poses of HDAC8 inhibitors” (J Med Chem, 2009)

Target: T1, Histone deacetylase 8 (Homo sapiens, UniProt Q9BY41)
T1 sequence (Q9BY41 whole entry): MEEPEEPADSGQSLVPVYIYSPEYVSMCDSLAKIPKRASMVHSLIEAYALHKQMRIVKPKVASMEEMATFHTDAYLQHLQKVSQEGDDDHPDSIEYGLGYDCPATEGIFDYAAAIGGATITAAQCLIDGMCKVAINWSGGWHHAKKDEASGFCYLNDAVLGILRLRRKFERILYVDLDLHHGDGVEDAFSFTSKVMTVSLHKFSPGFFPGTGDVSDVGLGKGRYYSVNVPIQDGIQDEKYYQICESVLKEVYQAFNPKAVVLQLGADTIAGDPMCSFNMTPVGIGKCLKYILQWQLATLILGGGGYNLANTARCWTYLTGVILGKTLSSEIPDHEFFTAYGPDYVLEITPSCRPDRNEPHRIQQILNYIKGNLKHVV
Assay: Inhibition of human recombinant HDAC8 using fluorescent acetylated substrate

Row | Structure (SMILES) | IC50 | Ki
1 | [N-]=[N+]=Nc1ccc(-c2csc(NC(=O)CCCCCCC(=O)NO)n2)cc1 | 2.71 µM | 2.43 µM
2 | [N-]=[N+]=NCc1cc(COc2ccc(NC(=O)CCCCCCC(=O)NO)cc2)cc(N=[N+]=[N-])c1 | 7.34 µM | 6.59 µM
